In brackets after ≈: the same amount, converted by molar mass. Read-outs that look alike come from different tables or passages of the source.
Key:
[1] = target: T1, Human plasma kallikrein (Homo sapiens (Human), UniProt P03952); experiment: Determination of the IC50 for plasma kallikrein; type: biochemical; conditions: 25° C., substrate H-DPro-Phe-Arg-AFC; read-out: IC50 (human PKal)
Description: Human plasma kallikrein (Protogen) was incubated at 25° C. with the fluorogenic substrate H-DPro-Phe-Arg-AFC and various concentrations of the test compound. Residual enzyme activity (initial rate of reaction) was determined by measuring the change in […] at 410 nm and the IC50 value for the test compound was determined.

[2] = target: thrombin (Homo sapiens (Human), UniProt P00734); experiment: Determination of enzyme selectivity: thrombin; type: biochemical; conditions: substrate at Km concentration
Description: (§3) Human serine protease enzymes plasmin, thrombin and trypsin were assayed for enzymatic activity using an appropriate fluorogenic substrate. Protease activity was measured by monitoring the accumulation of liberated fluorescence from the substrate over 5 minutes. The linear rate of fluorescence increase per minute was expressed as percentage (%) activity. The Km for the cleavage of each substrate was determined by standard transformation of the Michaelis-Menten equation.

[3] = Intrinsic clearance in human liver microsomes; type: in vitro ADME; conditions: human liver microsomes 0.5 mg/mL, 5 μM test compound, 37° C.; read-out: Human liver microsome (Clint μL/min/mg protein)
Description: (§1) Rat or human liver microsomes (0.5 mg/mL; Corning) were incubated with 5 μM test compound at 37° C. on a shaking platform (150 rpm). Samples were taken at 0, 6, 12, 18, 24 and 60 min and test compound concentrations were determined by LCMS against a calibration curve.

[4] = Plasma protein binding (PPB), rapid equilibrium dialysis, human plasma; type: in vitro ADME; conditions: 5 μM test compound, dialysis 5 hrs at 37° C.
Description: The fraction unbound in plasma was determined using ThermoScientific™ Pierce™ Rapid Equilibrium Dialysis Technology (Single-Use plate with inserts, 8K MWCO). […] Reference samples from the non-dialysed plasma were taken before the incubation to enable an assessment of recovery. Test compound concentrations were determined in plasma and buffer compartments by LCMS against a calibration curve. […] Results are presented as percent plasma protein bound (% PPB).

[5] = target: Human Factor XIIa (Homo sapiens (Human), UniProt P00748); experiment: Factor XIIa inhibitory activity in vitro; type: biochemical; conditions: 25° C., substrate H-DPro-Phe-Arg-AFC; read-out: IC50 (human FXIIa)
Description: Human Factor XIIa (Enzyme Research Laboratories) was incubated at 25° C. with the fluorogenic substrate H-DPro-Phe-Arg-AFC and various concentrations of the test compound. Residual enzyme activity (initial rate of reaction) was determined by measuring the change in […] at 410 nm and the IC50 value for the test compound was determined.

[6] = In vitro permeability, Caco-2 model for oral absorption; type: in vitro ADME; conditions: human, apical to basolateral, 50 μM test compound, 37° C.
Summary of the method: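 Caco-2 monolayers grown on collagen inserts for 3 days, with 50 μM compound added apically and incubated 1 hour at 37° C with shaking. Apical-to-basolateral transport measured by LCMS in both compartments. Monolayer integrity checked by TEER before and after, and by Lucifer Yellow flux.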

[7] = target: Human FXIa (Homo sapiens (Human), UniProt P03951); experiment: Determination of the % inhibition / IC50 for FXIa; type: biochemical; conditions: for inhibition at 40 µM: 40 μM test compound, read-out: % Inhibition @ 40 μM (human FXIa); for IC50: 25° C., substrate Z-Gly-Pro-Arg-AFC
Description: FXIa inhibitory activity in vitro was determined using standard published methods (see e.g. Johansen et al., Int. J. Tiss. Reac. 1986, 8, 185; Shori et al., Biochem. Pharmacol., 1992, 43, 1209; Sturzebecher et al., Biol. Chem. Hoppe-Seyler, 1992, 373, 1025). […]

[8] = target: plasmin (Homo sapiens (Human), UniProt P00747); experiment: Determination of enzyme selectivity: plasmin; type: biochemical; conditions: substrate at Km concentration
Description: as §3

[9] = target: trypsin; experiment: Determination of enzyme selectivity: trypsin; type: biochemical, human; conditions: substrate at Km concentration
Description: as §3

[10] = Plasma protein binding (PPB), rapid equilibrium dialysis, rat plasma; type: in vitro ADME; conditions: 5 μM test compound, dialysis 5 hrs at 37° C.
Description: The fraction unbound in plasma was determined using ThermoScientific™ Pierce™ Rapid Equilibrium Dialysis Technology (Single-Use plate with inserts, 8K MWCO). 5 μM test compound was spiked into human or rat plasma (300 μL) and dialysed against 146.5 mM phosphate buffer (500 μL) for 5 hrs at 37° C., shaking at 1200 rpm. Reference samples from the non-dialysed plasma were taken before the incubation to enable an assessment of recovery. Test compound concentrations were determined in plasma and buffer compartments by LCMS against a calibration curve. The fraction unbound in plasma was determined using standard methodology (Waters N J et al (2008) J Pharm Sci 97(10); 4586-95). Results are presented as percent plasma protein bound (% PPB).

[11] = Intrinsic clearance in rat liver microsomes; type: in vitro ADME; conditions: rat liver microsomes 0.5 mg/mL, 5 μM test compound, 37° C.; read-out: rat liver microsome (Clint μL/min/mg protein)
Description: as §1

[12] = target: Human KLK1 (Homo sapiens (Human), UniProt P06870); experiment: Determination of the IC50 for KLK1; type: biochemical; conditions: 25° C., substrate H-DVal-Leu-Arg-AFC
Description: Human KLK1 (Callbiochem) was incubated at 25° C. with the fluorogenic substrate H-DVal-Leu-Arg-AFC and various concentrations of the test compound. Residual enzyme activity (initial rate of reaction) was determined by measuring the change in […] at 410 nm and the IC50 value for the test compound was determined.

[13] = Predicted plasma clearance (Clp), well-stirred model, rat; type: in vitro ADME; conditions: percentage of hepatic blood flow
Description: (§2) The predicted plasma clearance (Clp) is calculated using the well-stirred model (Rowland M, Benet L Z, and Graham G G. Clearance concepts in pharmacokinetics. J Pharmacokinet Biopharm. (1973) 1:123-136.), one of several models that can be used to extrapolate the in vitro data. The model assumes instantaneous and complete mixing of drug within the liver and is a function of intrinsic clearance, hepatic blood flow and free fraction of drug in the blood. The predicted plasma clearance in mL/min/kg is presented as a percentage of hepatic blood flow (LBF).

[14] = Predicted plasma clearance (Clp), well-stirred model, human; type: in vitro ADME; conditions: percentage of hepatic blood flow
Description: as §2

[15] = Solubility in water and 0.1N HCl (aq); type: physicochemical; conditions: thermodynamic from solid, incubated at 1 mg/mL, 37° C.
Description: Solubility was determined in water and 0.1N HCl (aq). Test compounds were incubated at 1 mg/mL for 24 hrs at 37° C. on a shaking platform (500 rpm). Samples were taken at 1, 4 and 24 hrs and centrifuged at 15,000 g for 10 min. Test compound concentration in the supernatant was determined by LCMS against a standard curve.

[16] = Pharmacokinetics following a single oral dose in male Sprague-Dawley rats; type: in vivo; conditions: rat, single po dose (nominal 10 mg/kg; actual dose per row in column Dose po), 10% DMSO/10% cremophor/80% SWFI, plasma
Description: Pharmacokinetic studies of the compounds in Table 13 were performed to assess the pharmacokinetics following a single oral dose in male Sprague-Dawley rats. Two rats were given a single po dose of 5 mL/kg of a nominal 2 mg/mL (10 mg/kg) composition of test compound in vehicle. Following dosing, blood samples were collected over a period of 24 hours. Sample times were 5, 15 and 30 minutes then 1, 2, 4, 6, 8 and 12 hours. Following collection, blood samples were centrifuged and the plasma fraction analysed for concentration of test compound by LCMS.

[17] = target: T1, Human plasma kallikrein; experiment: Determination of the Ki for plasma kallikrein (mixed-model inhibition); type: biochemical

Chain of Human KLK1 (P06870 25-262): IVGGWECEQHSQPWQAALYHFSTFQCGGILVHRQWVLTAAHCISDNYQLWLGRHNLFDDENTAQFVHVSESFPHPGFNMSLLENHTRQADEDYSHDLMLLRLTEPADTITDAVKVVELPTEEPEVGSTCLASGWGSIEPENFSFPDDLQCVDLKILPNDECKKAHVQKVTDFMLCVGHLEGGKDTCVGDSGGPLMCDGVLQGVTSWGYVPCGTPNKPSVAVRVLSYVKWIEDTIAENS
Chain of plasmin (P00747 581-810): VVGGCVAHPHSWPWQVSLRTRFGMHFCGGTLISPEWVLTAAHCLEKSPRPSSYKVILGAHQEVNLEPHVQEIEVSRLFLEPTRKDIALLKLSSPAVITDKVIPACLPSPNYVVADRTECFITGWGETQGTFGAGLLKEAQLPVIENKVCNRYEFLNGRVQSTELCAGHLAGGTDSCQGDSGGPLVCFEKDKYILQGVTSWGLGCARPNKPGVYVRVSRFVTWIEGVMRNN
Chain of plasmin (P00747 97-580): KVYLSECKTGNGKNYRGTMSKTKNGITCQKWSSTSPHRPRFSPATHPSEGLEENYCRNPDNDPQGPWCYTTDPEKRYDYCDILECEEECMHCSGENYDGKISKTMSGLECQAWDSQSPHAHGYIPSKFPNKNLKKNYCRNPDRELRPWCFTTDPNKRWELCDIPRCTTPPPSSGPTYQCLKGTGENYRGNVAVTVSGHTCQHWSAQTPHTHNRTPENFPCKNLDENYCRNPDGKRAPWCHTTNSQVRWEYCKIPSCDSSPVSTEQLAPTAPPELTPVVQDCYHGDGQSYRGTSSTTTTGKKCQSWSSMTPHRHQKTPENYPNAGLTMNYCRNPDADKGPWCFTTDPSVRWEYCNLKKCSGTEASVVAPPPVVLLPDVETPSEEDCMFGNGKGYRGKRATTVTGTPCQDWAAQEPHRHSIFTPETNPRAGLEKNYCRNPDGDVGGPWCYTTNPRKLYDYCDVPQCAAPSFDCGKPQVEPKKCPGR
Chain of Human Factor XIIa (P00748 373-615): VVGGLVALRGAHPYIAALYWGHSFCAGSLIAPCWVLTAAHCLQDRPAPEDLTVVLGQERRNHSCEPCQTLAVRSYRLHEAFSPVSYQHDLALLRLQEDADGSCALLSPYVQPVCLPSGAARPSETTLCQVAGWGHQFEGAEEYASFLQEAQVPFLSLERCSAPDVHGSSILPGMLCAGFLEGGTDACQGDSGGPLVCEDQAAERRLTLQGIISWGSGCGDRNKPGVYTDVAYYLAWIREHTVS
T1 sequence (P03952 391-638): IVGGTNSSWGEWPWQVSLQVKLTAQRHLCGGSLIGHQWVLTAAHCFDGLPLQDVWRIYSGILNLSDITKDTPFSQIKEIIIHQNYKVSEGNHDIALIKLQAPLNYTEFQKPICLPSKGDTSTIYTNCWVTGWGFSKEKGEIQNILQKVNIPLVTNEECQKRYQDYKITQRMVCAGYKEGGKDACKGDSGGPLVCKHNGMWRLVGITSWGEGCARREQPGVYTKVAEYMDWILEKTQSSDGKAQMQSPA
T1 sequence (P03952 20-390): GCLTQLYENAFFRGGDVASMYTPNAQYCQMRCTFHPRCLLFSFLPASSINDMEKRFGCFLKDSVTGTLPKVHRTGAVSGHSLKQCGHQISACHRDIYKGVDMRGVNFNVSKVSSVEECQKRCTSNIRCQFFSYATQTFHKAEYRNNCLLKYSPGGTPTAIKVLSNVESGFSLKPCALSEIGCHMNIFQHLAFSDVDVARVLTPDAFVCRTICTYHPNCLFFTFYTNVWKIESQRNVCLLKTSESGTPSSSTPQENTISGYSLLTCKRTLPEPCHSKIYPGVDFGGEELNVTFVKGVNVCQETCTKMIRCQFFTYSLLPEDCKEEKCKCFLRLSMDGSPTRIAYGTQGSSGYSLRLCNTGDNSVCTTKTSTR
Chain of Human FXIa (P03951 388-625): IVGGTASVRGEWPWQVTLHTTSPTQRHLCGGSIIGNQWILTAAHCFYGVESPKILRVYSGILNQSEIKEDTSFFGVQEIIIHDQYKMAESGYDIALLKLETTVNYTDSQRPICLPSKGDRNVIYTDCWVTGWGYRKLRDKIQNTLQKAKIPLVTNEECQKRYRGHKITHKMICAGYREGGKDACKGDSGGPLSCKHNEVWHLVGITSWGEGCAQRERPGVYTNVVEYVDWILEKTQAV
Chain of Human FXIa (P03951 19-387): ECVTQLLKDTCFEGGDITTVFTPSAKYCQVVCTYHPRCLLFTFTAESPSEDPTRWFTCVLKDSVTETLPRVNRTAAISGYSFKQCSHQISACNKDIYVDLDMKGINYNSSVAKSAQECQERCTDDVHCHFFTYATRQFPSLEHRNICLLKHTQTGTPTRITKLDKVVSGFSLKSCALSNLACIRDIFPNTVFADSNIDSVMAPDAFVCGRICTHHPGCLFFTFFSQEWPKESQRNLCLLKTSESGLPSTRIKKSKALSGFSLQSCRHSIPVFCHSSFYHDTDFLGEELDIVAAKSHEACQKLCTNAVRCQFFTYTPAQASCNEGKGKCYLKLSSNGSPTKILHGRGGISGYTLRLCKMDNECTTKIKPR

SMILES	IC50 [1]	IC50 [2]	microsomal CLint at 5 μM [3]	fraction unbound at 5 h, 5 μM [4]	IC50 [5]	Papp at 1 h, 50 μM [6]	inhibition at 40 µM [7]	IC50 [7]	IC50 [8]	IC50 [9]	fraction unbound at 5 h, 5 μM [10]	microsomal CLint at 5 μM [11]	IC50 [12]	Predicted in vivo rat Clp (% LBF) [13]	Predicted in vivo human Clp (% LBF) [14]	also measured
COc1ccc(C#N)c(CNC(=O)c2cn(Cc3ccc(Cn4ccccc4=O)cc3)nc2N)c1F [Example 43, 3-amino-N-[(6-cyano-2-fluoro-3-methoxyphenyl)methyl]-1-({4-[(2-oxopyridin-1-yl)methyl]phenyl}methyl)pyrazole-4-carboxamide]	0.0006 µM	> 40 µM	10 µL/min/mg	0.12	> 4 µM	2 ×10⁻⁶ cm/s	27%	> 40 µM	> 40 µM	> 40 µM	0.08	5 µL/min/mg	> 4 µM	2 % LBF	8 % LBF	–
COCc1nn(Cc2ccc(Cn3ccccc3=O)cc2)cc1C(=O)NCc1cc(OC)ccc1C#N [Example 37, N-[(2-cyano-5-methoxyphenyl)methyl]-3-(methoxymethyl)-1-({4-[(2-oxopyridin-1-yl)methyl]phenyl}methyl)pyrazole-4-carboxamide]	0.283 µM	> 40 µM	48 µL/min/mg	0.08	> 40 µM	20 ×10⁻⁶ cm/s	7%	> 40 µM	> 40 µM	> 40 µM	0.05	73 µL/min/mg	> 40 µM	11 % LBF	16 % LBF	–
COCc1nn(Cc2ccc(Cn3ccccc3=O)cc2)cc1C(=O)NCc1ccccc1-n1cnnn1 [Example 74, 3-(methoxymethyl)-1-({4-[(2-oxopyridin-1-yl)methyl]phenyl}methyl)-N-{[2-(1,2,3,4-tetrazol-1-yl)phenyl]methyl}pyrazole-4-carboxamide]	0.0176 µM	> 40 µM	–	–	> 40 µM	2 ×10⁻⁶ cm/s	8%	> 40 µM	> 40 µM	> 40 µM	–	–	> 40 µM	–	–	–
COCc1nn(Cc2ccc(Cn3cc(F)ccc3=O)cc2)cc1C(=O)NCc1c(C#N)ccc(OC)c1F [Example 53, N-[(6-cyano-2-fluoro-3-methoxyphenyl)methyl]-1-({4-[(5-fluoro-2-oxopyridin-1-yl)methyl]phenyl}methyl)-3-(methoxymethyl)pyrazole-4-carboxamide]	0.0017 µM	> 40 µM	104 µL/min/mg	0.1	> 40 µM	13 ×10⁻⁶ cm/s	5%	> 40 µM	> 40 µM	> 40 µM	0.04	77 µL/min/mg	> 40 µM	10 % LBF	35 % LBF	–
COCc1nn(Cc2cnc(N3CCC(F)(F)C3)nc2)cc1C(=O)NCc1c(-n2cnnn2)ccc(OC)c1F [Example 86, 1-{[2-(3,3-Difluoropyrrolidin-1-yl)pyrimidin-5-yl]methyl}-N-{[2-fluoro-3-methoxy-6-(1,2,3,4-tetrazol-1-yl)phenyl]methyl}-3-(methoxymethyl)pyrazole-4-carboxamide]	0.0017 µM	–	4 µL/min/mg	0.1	> 40 µM	16 ×10⁻⁶ cm/s	99%	0.477 µM	–	–	0.03	35 µL/min/mg	> 40 µM	3 % LBF	2 % LBF	solubility ([15]; simulated gastric fluid, 0.1N HCl (aq), read-out: Solubility 0.1N HCl (aq)): 50 µg/mL (≈ 89.5 µM); solubility ([15]; water, read-out: Solubility Water): 1 µg/mL (≈ 1.79 µM); Cmax [16]: 981 ng/mL; Tmax [16]: 30 min; Ki ([17]; human plasma kallikrein, mixed-model inhibition equation): 0.00028 µM; Alpha ([17]; parameter of the mixed-model equation indicating mechanism of inhibition): 2.78

From patent publication US11180484B2, “Pyrazole derivatives as plasma kallikrein inhibitors” (KALVISTA PHARMACEUTICALS LIMITED, priority 2016, dated 2021)
